# Experimental data published in the RepoRT retention time repository (doi:10.1016/j.chroma.2012.12.030).
# Test: RP, Waters ACQUITY UPLC BEH C18, 100 × 2.1 mm, 1.7 µm, 60 °C, 0.3 mL/min, estimated dead time 0.73 min; A: water + 0.01% formic acid; B: methanol + 0.01% formic acid; gradient (min/%B) 0/10 14/90 16/90
# Conditions: stereoisomer not certain
row,LC retention time,SMILES
1,4.8 min,O=C(O)c1ccccc1O
2,5.92 min,CC(=O)O[Si](CCCC(O)COC(=O)c1ccc(O)cc1)(OC(C)=O)c1ccccc1 (stereo unspecified)
3,10.3 min,CCCCC1=NC2(CCCC2)C(=O)N1Cc1ccc(-c2ccccc2-c2nn[nH]n2)cc1
4,6.4 min,O=C(c1ccc(O)cc1O)c1ccc(O)cc1O
5,11.5 min,CC(=O)OC1(C(C)=O)CCC2C3C=C(C)C4=CC(=O)CCC4(C)C3CCC21C (stereo unspecified)
6,3.13 min,CCCC1CC(C(=O)NC(C(C)O)C2OC(SC)C(O)C(O)C2O)N(C)C1 (stereo unspecified)
7,12.8 min,Cc1ccc(C)c(OCCCC(C)(C)C(=O)O)c1
8,6.4 min,COc1cc(O)c(C(=O)c2ccccc2)cc1S(=O)(=O)O
9,3.44 min,Cc1cc2c(s1)Nc1ccccc1N=C2N1CCN(C)CC1
10,11.1 min,COc1ccc(C(=O)c2ccccc2)c(O)c1
11,14.2 min,CCC(C)(C)C(=O)OC1CC(C)C=C2C=CC(C)C(CCC3CC(O)CC(=O)O3)C21 (stereo unspecified)
12,10.6 min,CC12CCC3c4ccc(OS(=O)(=O)O)cc4CCC3C1CCC2=O (stereo unspecified)
13,10.3 min,CCCCOC(=O)c1ccc(O)cc1
14,2.09 min,Nc1ccc(S(=O)(=O)Nc2ncccn2)cc1
15,10.1 min,C#CC1(O)CCC2C3CCc4cc(O)ccc4C3CCC21C (stereo unspecified)
16,6.2 min,CCC1OC(=O)C(C)C(OC2CC(C)(OC)C(O)C(C)O2)C(C)C(OC2OC(C)CC(N(C)C)C2O)C(C)(O)CC(C)CN(C)C(C)C(O)C1(C)O (stereo unspecified)
17,7.08 min,CC1(C)SC2C(NC(=O)Cc3ccccc3)C(=O)N2C1C(=O)O (stereo unspecified)
18,8.19 min,Cc1onc(-c2ccccc2)c1C(=O)NC1C(=O)N2C1SC(C)(C)C2C(=O)O (stereo unspecified)
19,3.19 min,Cc1nnc(N=S(=O)(O)c2ccc(N)cc2)s1
20,7.47 min,CCOC(=O)C(CCc1ccccc1)NC(C)C(=O)N1CCCC1C(=O)O (stereo unspecified)
21,10.4 min,CC12CCC3c4ccc(OS(=O)(=O)O)cc4CCC3C1CCC2O (stereo unspecified)
22,2.96 min,O=C1OCCN1N=Cc1ccc([N+](=O)[O-])o1
23,3.15 min,COc1cc(Cc2cnc(N)nc2N)cc(OC)c1OC
24,7.54 min,CCOC(=O)c1ccc(O)cc1

row,LC retention time,SMILES
1,9.5 min,CC(C(=O)O)c1cccc(C(=O)c2ccccc2)c1 (stereo unspecified)
2,2.05 min,CC(=O)Nc1ccc(O)cc1
3,8.84 min,CCC1OC(=O)CC(O)C(C)C(OC2OC(C)C(OC3CC(C)(O)C(O)C(C)O3)C(N(C)C)C2O)C(CC=O)CC(C)C(=O)C=CC(C)=CC1COC1OC(C)C(O)C(OC)C1OC (stereo unspecified)
4,8.5 min,CCC1OC(=O)C(C)C(OC2CC(C)(OC)C(O)C(C)O2)C(C)C(OC2OC(C)CC(N(C)C)C2O)C(C)(O)CC(C)C(=O)C(C)C(O)C1(C)O (stereo unspecified)
5,3.59 min,Cc1cc(C)nc(NS(=O)(=O)c2ccc(N)cc2)n1
6,7.55 min,COc1ccc2nc(S(=O)Cc3ncc(C)c(OC)c3C)[nH]c2c1 (stereo unspecified)
7,7.1 min,CCn1cc(C(=O)O)c(=O)c2ccc(C)nc21
8,2.7 min,CCn1cc(C(=O)O)c(=O)c2cnc(N3CCNCC3)nc21
9,8.97 min,CCCOC(=O)c1ccc(O)cc1
10,9.99 min,CCC1OC(=O)C(C)C(OC2CC(C)(OC)C(O)C(C)O2)C(C)C(OC2OC(C)CC(N(C)C)C2O)C(C)(O)CC(C)C(=NOCOCCOC)C(C)C(O)C1(C)O (stereo unspecified)
11,9.74 min,COc1ccc2cc(C(C)C(=O)O)ccc2c1 (stereo unspecified)
12,10.3 min,CCC(=C(CC)c1ccc(O)cc1)c1ccc(O)cc1
13,3.48 min,Cc1c(N)c(=O)n(-c2ccccc2)n1C
14,11.7 min,CC(=O)OC1(C(C)=O)CCC2C3CC(C)C4=CC(=O)CCC4(C)C3CCC21C (stereo unspecified)
15,10.6 min,CCCCC(=O)N(Cc1ccc(-c2ccccc2-c2nn[nH]n2)cc1)C(C(=O)O)C(C)C (stereo unspecified)
16,8.1 min,NC(=O)N1c2ccccc2C=Cc2ccccc21
17,4.8 min,c1ccc2[nH]c(-c3cscn3)nc2c1
18,9.99 min,CC12CCC3c4ccc(O)cc4CCC3C1CCC2=O (stereo unspecified)
19,2.64 min,O=C1OC(CN2CCOCC2)CN1N=Cc1ccc([N+](=O)[O-])o1 (stereo unspecified)
20,3.91 min,Cc1cc(NS(=O)(=O)c2ccc(N)cc2)no1
21,9.27 min,CCC(C)C(=O)OC1CC(O)C=C2C=CC(C)C(CCC(O)CC(O)CC(=O)O)C21 (stereo unspecified)
22,11.8 min,CC(C)Cc1ccc(C(C)C(=O)O)cc1 (stereo unspecified)
23,11.8 min,C=C1CC2C3C=C(C)C4=CC(=O)CCC4(C)C3CCC2(C)C1(OC(C)=O)C(C)=O (stereo unspecified)
24,6.96 min,CC12CCC3c4ccc(O)cc4CCC3C1CC(O)C2O (stereo unspecified)

# Second part, the compound before the results:
row,SMILES,LC retention time
1,COC(=O)C1C2CCC(CC1OC(=O)c1ccccc1)N2 (stereo unspecified),5.14 min
2,Cc1nc(N(C)C)nc(OC(=O)N(C)C)c1C,7.79 min
3,CC(COc1ccc(Oc2ccccc2)cc1)Oc1ccccn1 (stereo unspecified),13.4 min
4,COc1cc2c(c3oc(=O)c4c(c13)CCC4=O)C1(O)C=COC1O2 (stereo unspecified),6.04 min
5,CNC(=O)Oc1cc(C)c(SC)c(C)c1,9.95 min
6,CNC(=O)Oc1cccc2ccccc12,7.81 min
7,O=C(OC1CC2CCC([NH2+]2)C1C(=O)[O-])c1ccccc1 (stereo unspecified),4.3 min
8,CNC(C)C(=O)c1ccccc1 (stereo unspecified),2.26 min
9,COc1cc2c(c3oc(=O)c4c(c13)CCC4=O)C1CCOC1O2 (stereo unspecified),6.76 min
10,COc1nc(N)nc(NC(C)(C)C)n1,6.25 min
11,CC(N)Cc1ccccc1 (stereo unspecified),2.8 min
12,CCCCC(C)C(OC(=O)CC(CC(=O)O)C(=O)O)C(CC(C)CCCCCCC(O)CC(O)C(C)N)OC(=O)CC(CC(=O)O)C(=O)O (stereo unspecified),11 min
13,CCSC(=O)N1CCCCCC1,10.4 min
14,CCNC(C)Cc1ccc2c(c1)OCO2 (stereo unspecified),3.48 min
15,CC1CCCC(=O)CCCC=Cc2cc(O)cc(O)c2C(=O)O1 (stereo unspecified),10.3 min
16,COc1cc2c(c3oc(=O)c4c(c13)CCOC4=O)C1C=COC1O2 (stereo unspecified),6.35 min
17,CNC(C)Cc1ccc2c(c1)OCO2 (stereo unspecified),3.02 min
18,COP(=S)(OC)SCn1nnc2ccccc2c1=O,11.5 min
19,CNC(=O)CSP(=S)(OC)OC,4.63 min
20,CCOC(=O)C1C(OC(=O)c2ccccc2)CC2CCC1N2C (stereo unspecified),5.78 min
21,CC(=O)OCC12CC(OC(=O)CC(C)C)C(C)=CC1OC1C(O)C(OC(C)=O)C2(C)C12CO2 (stereo unspecified),10 min
22,CC(C)N1C(=O)N(c2ccccc2)CSC1=NC(C)(C)C,13.1 min
23,CCOP(=S)(OCC)Oc1ccc(=O)n(-c2ccccc2)n1,10.7 min
24,CCCCC(C)C(OC(=O)CC(CC(=O)O)C(=O)O)C(CC(C)CC(O)CCCCC(O)CC(O)C(C)N)OC(=O)CC(CC(=O)O)C(=O)O (stereo unspecified),9.48 min
25,CCN(CC)c1nc(C)cc(OP(=S)(OC)OC)n1,12 min
26,COc1nn(CSP(=S)(OC)OC)c(=O)s1,9.06 min
27,COC(=O)Nc1nc2ccccc2[nH]1,3.89 min

row,SMILES,LC retention time
1,CC(C)N1C(=O)c2ccccc2NS1(=O)=O,6.66 min
2,Cc1cc(C2CC2)nc(Nc2ccccc2)n1,11.4 min
3,CCOP(=S)(OCC)Oc1cc(C)nc(C(C)C)n1,11.9 min
4,CCNc1nc(NC(C)(C)C)nc(SC)n1,10.6 min
5,CCNc1nc(NC(C)C)[nH]c(=O)n1,3.93 min
6,COC=C(C(=O)OC)c1ccccc1Oc1cc(Oc2ccccc2C#N)ncn1,10 min
7,CNC(C)Cc1ccccc1 (stereo unspecified),3.05 min
8,CN1C2CCC1C(C(=O)O)C(OC(=O)c1ccccc1)C2 (stereo unspecified),4.08 min
9,CCNc1nc(NC(C)(C)C)nc(OC)n1,9.07 min
10,CCNc1nc(NCC)[nH]c(=O)n1,2.83 min
11,COC(=O)C1C(OC(=O)c2ccccc2)CC2CCC1N2C (stereo unspecified),4.66 min
12,CCOC(=O)CC(SP(=S)(OC)OC)C(=O)OCC (stereo unspecified),11 min
13,CCNc1nc(NC(C)(C)C)[nH]c(=O)n1,5.25 min
14,COc1cc2c(c3oc(=O)c4c(c13)CCC4=O)C1C=COC1O2 (stereo unspecified),7.15 min
15,CC1=CC2OC3C(O)CC(C)(C34CO4)C2(CO)C(O)C1=O (stereo unspecified),2.83 min
16,CNC(=O)Oc1cccc2c1OC(C)(C)C2,7.48 min
17,CC(N)Cc1ccc2c(c1)OCO2 (stereo unspecified),2.97 min
18,CNC(=O)ON=C(C)SC,3.09 min
19,CC(C)c1ccc(NC(=O)N(C)C)cc1,8.83 min
20,COc1ccc(C(CN(C)C)C2(O)CCCCC2)cc1 (stereo unspecified),6.34 min
21,CCn1cc(C(=O)O)c(=O)c2cc3c(cc21)OCO3,5.67 min
22,CCCCCc1cc(O)c2c(c1)OC(C)(C)C1CCC(C(=O)O)=CC21 (stereo unspecified),13.9 min
23,CCC1OC(=O)C(C)C(OC2CC(C)(OC)C(O)C(C)O2)C(C)C(OC2OC(C)CC(N(C)C)C2O)C(C)(OC)CC(C)C(=O)C(C)C(O)C1(C)O (stereo unspecified),9.78 min
24,CC(=O)OCC12CC(OC(=O)CC(C)C)C(C)=CC1OC1C(O)C(O)C2(C)C12CO2 (stereo unspecified),9.07 min
25,COCC(=O)N(c1c(C)cccc1C)C(C)C(=O)OC (stereo unspecified),9.09 min
26,COc1cc2c(c3oc(=O)c4c(c13)CCOC4=O)C1CCOC1O2 (stereo unspecified),5.93 min
